In brackets after ≈: the same amount, converted by molar mass. Like-named read-outs stand apart in the source and are kept apart here.
How the values were obtained:
[1] = system: Leishmania promastigotes; assay: Leishmania promastigotes Assay; type: cell-based; details: promastigotes, 3H-thymidine uptake, read-out: Leishmania IC50 ± SD
Protocol: A WHO reference vaccine strain of L. major originally isolated from a patient in Iran and a Kenyan strain of L. donovani (MHOM(/KE/85/NLB 274) were cultured in medium 199 containing 0.02 mg/ml gentamycin, 25 mM Hepes, 4 mM L-glutamine, and 20% heat inactivated fetal calf serum (FCS). Incubation was carried out at 26° C. Promastigotes were harvested on day 3 and 6 of the culture and used for the parasite growth inhibition.
The effect of the test compounds on promastigotes was assessed by a method similar to the one described by Pearson et al., by incubating promastigotes (3×10^6/ml) at 26° C. for 2 hrs in the presence of a given compound or the medium alone in 96 wells flat bottom microtiter plates. Following incubation, 100 μCi of 3H-thymidine was added to each well and further incubated for 18 hrs. Promastigotes were then harvested on filter paper by means of a cell harvester, extensively washed with distilled water and counted in a scintillation counter. The promastigotes were also counted microscopically and their flagellar motility was assessed.

[2] = system: human lymphocytes; assay: Lymphocyte Proliferation Assay; type: cell-based; details: PHA provoked proliferation of human lymphocytes, read-out: Lymphocytes IC50 ± SD
Protocol: Human blood mononuclear cells (BMNC) from heparinized blood were isolated by metrizoate sodium-Ficoll density gradient centrifugation, washed 3 times in RPMI 1640 medium supplemented with 5% FCS and with 400 IU of penicillin plus 400 μg/ml streptomycin. BMNC were resuspended in the medium and cultured in triplicate, 0.63×10^5/ml and 160 μl per vial, in round-bottom microtiter plates with 20 μl of various concentrations of the test compound. Immediately prior to incubation, optimum concentrations of the mitogen phytohaemagglutinin (PHA) and the antigen purified protein derivative of tuberculin (PPD) were added to the cultures in a volume of 20 μl. Unstimulated control cultures were always included. Cultures were incubated for 3 or 7 days. The degree of lymphocyte proliferation was estimated by ^3H-thymidine (1 μCi per well) addition 24 h before the cells were harvested on glass fiber filters by means of a harvesting machine), and ^3H-thymidine incorporation was measured in a liquid scintillation counter. For each set of triplicate values, the median was recorded. Unstimulated cultures were always included as controls.

[3] = system: Plasmodium falciparum; assay: Plasmodium falciparum Assay; type: cell-based; details: 3-H-hypoxanthine incorporation, 48 hours, read-out: Plasmodium IC50 ± SD
Protocol: The experiments in which compounds were tested for their ability to inhibit parasite growth were performed by a modification of the method originally described by Jensen et al. (1982). 50 μl of parasitized erythrocytes (parasitemia approximately 1%) in a concentration of 5×10^8/ml and 50 μl of RPMI medium containing different concentrations of the test compound was added to each well of a 96 well flat-bottomed microtiter plate. The cultures were then incubated for 48 hours, 24 hours before termination of the culture adding 20 μl of 3-H-hypoxanthine (40 uCi/ml) was added to each well. The cultures were then harvested onto glass fiber filters using a Skatron cell harvester, and the incorporation of 3-H-hypoxanthine into the DNA of dividing parasites was determined by liquid scintillation spectrometry. Control cultures with uninfected erythrocytes and infected erythrocytes in RPMI medium without test compounds were always performed in parallel to the test cultures. In some experiments thin smears of parasite cultures were stained by Giemsa and examined under microscope (×1000). The test compounds described above, were diluted in RPMI medium immediately before use. In the experiments, chloroquine phosphate was used as a positive control as a drug known to inhibit parasite growth.

[4] = system: TNF-α; assay: TNF-α production by human peripheral blood mononuclear cells, culture supernatant (ELISA); type: cell-based
Protocol: Cells: Peripheral blood mononuclear cells obtained from healthy individuals. The cells were separated by a conventional method lymphoprep) and suspended in RMPI 1640 containing 5% human serum.
Stimulation of cytokine-release from human mononuclear cells: Human peripheral blood mononuclear cells from Danish donors were suspended in 1-10% (v/v) human serum in RPMI 1640 and adjusted to 2×10^6 cells per ml. 0.1 ml volumes were then dispensed into wells of 96-well microtiter plates. […] In some experiments cells were preincubated with drugs for 2 hrs before addition of stimulation antigens. The cultures were incubated overnight for TNF-α and IL-6 assays.
Supernatants were collected and assayed for TNF-α, IL-1α and IL-6 by ELISA procedures (Jakobsen et al., 1993, Fomsgaard et al., 1988, Hansen et al., 1991) with the following modifications. ELISA Maxisorp plates (Nunc, Roskilde, Denmark) were coated for 24 hrs at 4 C with 100 μl per well of 2.5 μg/ml rabbit polyclonal IgG to human recombinant TNF, IL-1α or IL-6 in 100 mM sodiumhydrogencarbonate. Non-attached sites were blocked for 1 h by 200 μl per well of 2% human serum slbumin in PBS (1 h at 37° C.), and the wells were washed 4 times in 2.5% NaCl, 0.1% Tween 20 (Merck, Darmstadt, Germany). This washing procedure was done after each of the following incubating steps:
1) 100 μl culture supernatants made to 50% (v/v) in incubation buffer (4% (v/v) normal rabbit serum, DAKO code X902), 1% polyethylene glycol (MW 6,000), 2.5% NaCl, 0.1% Tween 20 in phosphate buffered saline (PBS) were incubated 2 hrs at 37° C., dilutions of native as well as recombinant cytokine standards in the same incubation buffer were asssayed in parallel with the tested supernatants,
2) 100 μl per well of biotinilated rabbit antibodies to recombinant TNF-α, IL-1α or IL-6 (1.5 μg/ml in 0.5% human serum albumin, 0.1% Tween 20 in PBS) were added at 37° for 2 hrs,
3) […] per well of a 1:1000 dilution of streptavidin-peroxidase (Amersham, UK), at room temperature for 30 min.
Enzyme activities were quantitated after addition of 100 μl per well of 0.67 mg/ml 1,2-phenyldiamine hydrochloride (DAKO) dissolved in 100 mM citric acid-phosphate buffer, pH 5.0 containing 0.015% (v/v) H2O2. The reactions were stopped by adding 50 μl per well of 2.5 M H2SO4, and the optical densities are measured in an ELISA scanner at 490 nm against a test reference at 620 nm.
Assay: The compounds were prepared as stock solution at a concentration of 1 mg/ml in medium containing 10% DMSO. The dilutions were made in medium. The cells were stimulated with either SPAG (a malaria antigen TNF-inducer) or bacterial LPS. The supernatant of cell cultures were assayed for TNF-α using a commercial ELISA kit.

[5] = system: Helicobacter pylori; assay: Helicobacter species Assay (agar plate, MIC); type: cell-based; details: for MIC: Helicobacter pylori, 20 strains of H. pylori, agar plate, 72 hours, read-out: MIC; for No. strains inhibited/No. strains tested: at the MIC of the same line
Protocol: (§1) 20 strains of Helicobacter pylori were used in an agar plate assay. The compounds were incorporated in the agar plates at different concentrations as described in the examples and were then inoculated with different strains of Helicobacter pylori followed by incubation in a microaerophilic atmosphere at 37° C. for 72 hours. The number of colony-forming units (CFU) were counted after the incubation period. The MIC values were determined as the minimal concentration required to inhibit growth of the bacteria.
(§2) Stock solutions were made at a concentration of 1 mg/ml by dissolving 1 mg of each compound in 100 μl DMSO (dimethylsulfoxide) followed by addition of 900 μl of heat-inactivated fetal claf serum (HFCS). These stock solutions were diluted with HFCS to make solutions having the following concentrations: 320 μg/ml, 160 μg/ml, 80 μg/ml, 40 μg/ml and 20 μg/ml. Dilution rows were made with 3 ml aliquots in vials containing the compounds in the following final test concentrations: 16 μg/ml, 8 μg/ml, 4 μg/ml, 2 μg/ml and 1 μg/ml. As control was used DMSO-HFCS containing an amount of DMSO equal to the amount of test compound in the solution with 320 μg/ml compound.
as §1, with “Bacteria: 20” for “20”, “concentrations” for “concentrations as described in the examples”, “and then they” for “and”, “were” for “were then”, “incubation at” for “incubation in a”, “C. in” for “C. for”
as §2, with “concentrations: 2560 μg/ml, 1280 μg/ml, 640 μg/ml,” for “concentrations:”, “160 µg/ml and” for “160 μg/ml,”, “80” for “80 μg/ml, 40 μg/ml and 20”, “concentrations: 128 μg/ml, 64 μg/ml, 32 μg/ml, 12” for “concentrations: 16”, “8” for “8 μg/ml, 4 μg/ml, 2”, “and 4” for “and 1”
Bacteria: 20 strains of Helicobacter pylori were used in an agar plate assay. The same method as described above under Experiment A was employed and MIC values were determined.

[6] = Experiment 1, LPS, 12.5 μg/ml, Control 1.17
[7] = Experiment 1, LPS, 25 μg/ml, Control 1.17
[8] = Experiment 1, LPS, 50 μg/ml, Control 1.17
[9] = Experiment 1, LPS, 100 μg/ml, Control 1.17
[10] = Experiment 1, SPAG, 12.5 μg/ml, Control 3.73
[11] = Experiment 1, SPAG, 25 μg/ml, Control 3.73
[12] = Experiment 1, SPAG, 50 μg/ml, Control 3.73
[13] = Experiment 1, SPAG, 100 μg/ml, Control 3.73

With `COc1ccc(C(=O)/C=C/c2ccccc2F)c(OC)c1OC` [2-F-2′,3′,4′-OCH3, 2-fluoro-2′,3′,4′-trimethoxychalcone] the IC50 ([1]; Leishmania) was 15 ± 1 µM, the IC50 ([2]; Lymphocyte) was 11 ± 1 µM and the melting point was 75 to 75.8 °C.

`COc1ccc(/C=C/C(=O)c2ccc(OC)cc2)cc1` [4′,4-OCH3] gave an IC50 [1] of 106 ± 9 µM, an IC50 [3] of 51 µM and an IC50 [2] of 112 ± 8 µM.

With `O=C(/C=C/c1ccc(O)cc1)c1ccc(O)cc1` [4′-4-OH] the IC50 [1] was 83 ± 5 µM, the IC50 [3] was 17 µM and the IC50 [2] was 59 ± 3 µM.

With `O=C(/C=C/c1ccccc1)c1ccc(F)cc1` [4′-F, 4′-fluorochalcone] the IC50 ([1]; Leishmania) was 15 ± 1 µM, the IC50 ([3]; Plasmodium falciparum) was 51 µM and the IC50 ([2]; Lymphocyte) was 23 ± 2 µM.

Work on `CN(C)c1ccc(/C=C/C(=O)c2ccc([N+](=O)[O-])cc2)cc1` [4′-NO2-4-N(CH3)2, 4-dimethylamino-4′-nitrochalcone] yielded a melting point of 214 to 214.7 °C.

For `CCCCCCOc1ccc(C(=O)/C=C/c2ccccc2)cc1` [4′-OC6H13], the IC50 [1] was 62 ± 5 µM, the IC50 [3] was 17 µM and the IC50 [2] was 99 ± 7 µM.

`O=C(/C=C/c1ccccc1)c1ccccc1` [Chalcon] showed an IC50 ([1]; Leishmania) of 20 ± 1 µM, an IC50 ([3]; Plasmodium falciparum) of 44 µM and an IC50 ([2]; Lymphocyte) of 21 ± 2 µM.

For `COc1c(/C=C/C(=O)c2ccc(O)cc2)ccc(O)c1CC=C(C)C` [Licochalcone C, 2-methoxy-3-(3-methyl-2-butenyl)-4,4′-dihydroxychalcone], the IC50 ([1]; Leishmania) was 55 ± 3 µM, the IC50 ([3]; Plasmodium falciparum) was 16 µM and the IC50 ([2]; Lymphocyte) was 53 ± 2 µM.

In the case of `COc1cc(/C=C/C(=O)c2ccc(N(C)C)cc2)cc(OC)c1` [PH32, 4′-dimethylamino-3,5-dimethoxychalcone], the “inhibitory effect on TNF-α production” value [4] is reported as “no or very little inhibitory effect”, the “TNF-α production (OD values)” value [4, 6] is reported as 1.23 OD and the “TNF-α production (OD values)” value [4, 7] is reported as 1.55 OD. The “TNF-α production (OD values)” value [4, 8] was 1.28 OD, the “TNF-α production (OD values)” value [4, 9] was 0.94 OD and the “TNF-α production (OD values)” value [4, 10] was 3.90 OD. For the same compound, the “TNF-α production (OD values)” value [4, 11] was 2.26 OD, the “TNF-α production (OD values)” value [4, 12] was 1.74 OD and the “TNF-α production (OD values)” value [4, 13] was 0.75 OD. The MIC [5] was greater than 128 µg/mL, the “No. strains inhibited/No. strains tested” value [5] was 0/20 and the IC50 ([3]; Plasmodium falciparum) was 17 µM.

For `CCCCOc1cccc(C(=O)/C=C/c2ccc(OC)cc2OC)c1` [PH81, 3′-butoxy-2,4-dimethoxychalcone], the MIC [5] was 16 µg/mL (≈ 47 µM), the “No. strains inhibited/No. strains tested” value [5] was 5/20 and the IC50 ([1]; Leishmania) was 20 ± 3 µM. The IC50 ([3]; Plasmodium falciparum) was 16 µM and the IC50 ([2]; Lymphocyte) was 65 ± 4 µM.

With `CCCCOc1ccccc1C(=O)/C=C/c1ccc(OC)cc1OC` [PH142, 2′-butoxy-2,4-dimethoxychalcone] the “TNF-α production (OD values)” value [4, 6] was 0.26 OD, the “TNF-α production (OD values)” value [4, 7] was 0.24 OD and the “TNF-α production (OD values)” value [4, 8] was 0.18 OD. For the same compound, the “TNF-α production (OD values)” value [4, 9] was 0.10 OD, the “TNF-α production (OD values)” value [4, 10] was 0.02 OD and the “TNF-α production (OD values)” value [4, 11] was 0.02 OD. For the same compound, the “TNF-α production (OD values)” value [4, 12] was 0.02 OD, the “TNF-α production (OD values)” value [4, 13] was 0.02 OD and the “TNF-α production (OD values)” value ([4]; Experiment 2, LPS, 1.562 μg/ml, Control 2.06) was 1.58 OD. For the same compound, the “TNF-α production (OD values)” value ([4]; Experiment 2, LPS, 3.125 μg/ml, Control 2.06) was 1.00 OD, the “TNF-α production (OD values)” value ([4]; Experiment 2, LPS, 6.25 μg/ml, Control 2.06) was 0.65 OD and the “TNF-α production (OD values)” value ([4]; Experiment 2, LPS, 12.5 μg/ml, Control 2.06) was 0.16 OD. For the same compound, the “TNF-α production (OD values)” value ([4]; Experiment 2, SPAG, 1.562 μg/ml, Control 2.28) was 1.86 OD, the “TNF-α production (OD values)” value ([4]; Experiment 2, SPAG, 3.125 μg/ml, Control 2.28) was 0.55 OD and the “TNF-α production (OD values)” value ([4]; Experiment 2, SPAG, 6.25 μg/ml, Control 2.28) was 0.04 OD. The “TNF-α production (OD values)” value ([4]; Experiment 2, SPAG, 12.5 μg/ml, Control 2.28) was 0.02 OD, the MIC [5] was 128 µg/mL (≈ 376 µM) and the “No. strains inhibited/No. strains tested” value [5] was 2/20.
